Measurements: paper PMC2843925 (ACS chemical neuroscience, 2010)

Legend:
[1] = biological target: DAT; conditions: known DAT ligands; ref Ukairo et al. ([12]); cited from earlier work
[2] = biological target: T1, hDAT (Homo sapiens, UniProt Q01959); assay: [125I]-RTI-55 binding, HEK-hDAT membranes; conditions: for Hill coefficient: [125I]-RTI-55 binding
[3] = biological target: T2, hSERT (Homo sapiens, UniProt P31645); assay: [125I]-RTI-55 binding, HEK-hSERT membranes; conditions: for Hill coefficient: [125I]-RTI-55 binding
[4] = biological target: T1, hDAT; assay: [3H]-WIN 35,428 binding displacement in hDAT N2A cells; conditions: 10 μM, pre- or co-incubation
[5] = biological target: T3, hNET (Homo sapiens, UniProt P23975); assay type: binding
[6] = biological target: T1, hDAT; assay: [3H]-dopamine uptake inhibition, HEK-hDAT cells; assay type: cell-based; conditions: switch to HEK cells
[7] = biological target: T2, hSERT; assay: [3H]-serotonin uptake inhibition, HEK-hSERT cells; assay type: cell-based; conditions: read-out: [3H]-Serotonin uptake IC50, mean ± SEM
[8] = biological target: T3, hNET; assay type: cell-based
[9] = ref [17]; cited from earlier work
[10] = biological target: T1, hDAT; assay: [3H]-dopamine uptake inhibition in hDAT N2A cells

T1 sequence (Q01959 whole entry): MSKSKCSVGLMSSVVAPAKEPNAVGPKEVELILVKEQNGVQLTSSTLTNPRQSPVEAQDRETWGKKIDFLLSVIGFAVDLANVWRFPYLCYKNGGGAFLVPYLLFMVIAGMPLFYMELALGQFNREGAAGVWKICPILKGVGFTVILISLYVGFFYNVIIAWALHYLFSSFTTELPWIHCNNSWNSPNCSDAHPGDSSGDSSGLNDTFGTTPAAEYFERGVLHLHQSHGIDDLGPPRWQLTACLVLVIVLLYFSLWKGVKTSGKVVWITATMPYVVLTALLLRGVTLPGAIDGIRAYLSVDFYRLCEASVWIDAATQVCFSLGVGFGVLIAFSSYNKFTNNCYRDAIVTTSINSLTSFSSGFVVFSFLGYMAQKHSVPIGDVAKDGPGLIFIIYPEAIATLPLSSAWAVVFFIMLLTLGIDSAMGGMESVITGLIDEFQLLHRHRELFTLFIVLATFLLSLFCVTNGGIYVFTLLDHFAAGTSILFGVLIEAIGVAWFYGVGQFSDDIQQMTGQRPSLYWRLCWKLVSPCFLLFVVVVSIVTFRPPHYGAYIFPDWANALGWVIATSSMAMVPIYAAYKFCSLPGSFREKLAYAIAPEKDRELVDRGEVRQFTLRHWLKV
T3 sequence (P23975 whole entry): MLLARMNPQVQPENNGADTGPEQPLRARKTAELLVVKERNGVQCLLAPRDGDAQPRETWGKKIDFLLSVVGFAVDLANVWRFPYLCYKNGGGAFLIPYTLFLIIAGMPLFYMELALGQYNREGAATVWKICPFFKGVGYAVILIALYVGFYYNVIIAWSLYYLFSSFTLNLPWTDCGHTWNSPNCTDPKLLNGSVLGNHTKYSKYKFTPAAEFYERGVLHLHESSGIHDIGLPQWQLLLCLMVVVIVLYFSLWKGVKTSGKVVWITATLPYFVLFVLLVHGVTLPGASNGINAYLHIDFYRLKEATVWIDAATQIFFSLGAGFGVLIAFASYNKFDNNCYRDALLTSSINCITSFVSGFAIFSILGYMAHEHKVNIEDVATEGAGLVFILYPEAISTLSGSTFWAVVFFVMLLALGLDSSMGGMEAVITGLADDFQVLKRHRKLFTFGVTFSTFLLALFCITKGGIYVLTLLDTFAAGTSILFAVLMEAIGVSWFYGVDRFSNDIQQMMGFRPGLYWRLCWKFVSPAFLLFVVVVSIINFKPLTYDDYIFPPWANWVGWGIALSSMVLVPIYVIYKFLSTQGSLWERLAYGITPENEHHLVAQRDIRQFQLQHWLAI
T2 sequence (P31645 whole entry): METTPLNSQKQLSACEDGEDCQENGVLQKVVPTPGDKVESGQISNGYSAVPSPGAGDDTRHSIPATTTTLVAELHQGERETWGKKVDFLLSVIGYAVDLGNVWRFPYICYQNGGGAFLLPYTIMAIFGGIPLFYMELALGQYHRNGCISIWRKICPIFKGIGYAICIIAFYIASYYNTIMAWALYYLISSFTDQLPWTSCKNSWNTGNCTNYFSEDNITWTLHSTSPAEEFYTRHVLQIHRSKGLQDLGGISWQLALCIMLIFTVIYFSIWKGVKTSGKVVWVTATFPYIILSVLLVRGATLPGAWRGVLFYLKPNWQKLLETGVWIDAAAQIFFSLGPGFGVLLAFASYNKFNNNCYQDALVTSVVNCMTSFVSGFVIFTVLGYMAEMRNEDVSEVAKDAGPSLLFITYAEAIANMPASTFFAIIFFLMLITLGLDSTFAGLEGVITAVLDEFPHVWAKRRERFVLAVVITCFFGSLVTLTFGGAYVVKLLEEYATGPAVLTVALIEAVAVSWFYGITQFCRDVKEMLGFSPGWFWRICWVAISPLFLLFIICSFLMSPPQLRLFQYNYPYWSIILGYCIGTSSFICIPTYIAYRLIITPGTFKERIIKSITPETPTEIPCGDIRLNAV

OC1(c2ccc(Cl)cc2)c2ccccc2C2=NCCN21 (stereo not shown) [Mazindol, 5-(4-chlorophenyl)-2,3-dihydroimidazo[2,1-a]isoindol-5-ol]
E pKi (experimental pKi) [1]: 7.89

COC(=O)[C@H]1[C@@H](OC(=O)c2ccccc2)C[C@@H]2CC[C@H]1O2 [8-Oxa-norcocaine, methyl (1R,2R,3S,5S)-3-benzoyloxy-8-oxabicyclo[3.2.1]octane-2-carboxylate]
E pKi (experimental pKi) [1]: 5.81

COC(=O)[C@H]1[C@@H](c2ccc(F)cc2)C[C@@H]2CC[C@H]1N2C [WIN 35,428, methyl (1R,2S,3S,5S)-3-(4-fluorophenyl)-8-methyl-8-azabicyclo[3.2.1]octane-2-carboxylate]
E pKi (experimental pKi) [1]: 7.70

COC(=O)[C@H]1[C@@H](OC(=O)c2ccccc2)C[C@@H]2CC[C@H]1N2C [Cocaine, methyl (1R,2R,3S,5S)-3-benzoyloxy-8-methyl-8-azabicyclo[3.2.1]octane-2-carboxylate, reference compound]
Hill coefficient ([2]; HEK-hDAT cells): -0.81 ± 0.03
Hill coefficient ([3]; HEK-hSERT cells): -1.12 ± 0.03

COC(=O)[C@@H]1CN(C)CC[C@@H]1c1ccc(Cl)cc1 [4-ARA-127, (1S, 3S, 4R)-4-(chlorophenyl)-3-[hydroxy(methyloxo)methyl]-1-methylpiperidin-1iium]
E pKi (experimental pKi) [1]: 5.48

C[C@@H](CN1CCC(Cc2ccccc2)CC1)[C@@H](O)c1ccc(O)cc1.Cl (relative stereo) [MI-4, [R-(R*, S*)]-α-(4-Hydroxyphenyl)-β-methyl-4-(phenylmethyl)-1-piperidinepropanol hydrochloride]
Block of [3H]-WIN 35,428 binding in initial screen [4]: able to block [^3H]-WIN 35,428 binding in a statistically significant fashion
DAT affinity lower than that of cocaine ([2]; HEK-hDAT cells): 20 fold
Hill coefficient ([2]; HEK-hDAT cells): -0.80 ± 0.10
Ki ([2]; read-out: [125I]-RTI-55 binding Ki, HEK-hDAT cells, mean ± SEM): 3.46 ± 0.26 µM
DAT affinity increase, HEK vs N2A cells ([2]; switch to HEK cells): ~2 fold
Affinity at hSERT higher than at hDAT ([3]; HEK cells): 5 fold
Hill coefficient ([3]; HEK-hSERT cells): -1.09 ± 0.04
Ki ([3]; read-out: [125I]-RTI-55 binding Ki, HEK-hSERT cells, mean ± SEM): 0.67 ± 0.1 µM
Affinity at hNET higher than at hDAT ([5]; HEK cells): 10 fold
Hill coefficient ([5]; HEK-hNET cells, [125I]-RTI-55 binding): -1.04 ± 0.07
Ki ([5]; read-out: [125I]-RTI-55 binding Ki, HEK-hNET cells, mean ± SEM): 0.365 ± 0.068 µM
DUIP increase, HEK vs N2A cells [6]: 4 fold
IC50 [7]: 0.79 ± 0.17 µM
Substrate uptake inhibition potency at hNET greater than at hDAT ([8]; HEK cells): 3 – 4 fold
IC50 ([8]; read-out: [3H]-NE uptake IC50, HEK-hNET cells, mean ± SEM): 2.09 ± 0.28 µM
Crosses the blood-brain barrier [9]: crosses the blood-brain barrier
[3H]-dopamine uptake inhibition in screening assay ([10]; 10 μM): did not appreciably inhibit dopamine uptake
Shift of cocaine DUIP IC50 by MI-4 ([10]; 10 μM MI-4): approximately 3 fold
IC50 ([10]; read-out: Dopamine uptake inhibition potency (DUIP)): 28 µM
